Data: PubChem BioAssay AID248 (DTP/NCI, 2004)
“And” between values parts separate entries of the source, which are not always exact repeats. Equal values may be shown once. Inconclusive results and toxic doses are left out. Rule as the data show it: active = T/C of 150% or more; inactive = T/C below 125%.

Test system: L1210 leukemia ip in BDF1 mice, survival T/C
Assay: NCI In Vivo Anticancer Drug Screen. Data for tumor model L1210 Leukemia (intraperitoneal) in B6D2F1 (BDF1) mice
Details: endpoint: mean survival time, higher = longer survival
How it was run: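 Each compound was tested against a transplantable tumor grown in mice. The endpoint was survival, with treated animals benchmarked against vehicle controls as a simple ratio.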

[1] = dose: 100.0 mg/kg/injection, schedule: Q01DX001 (ip), vehicle: saline
[2] = dose: 100.0 mg/kg/injection, schedule: Q01DX009 (ip), vehicle: saline
[3] = dose: 100.0 mg/kg/injection, schedule: Q04DX003 (ip), vehicle: saline
[4] = dose: 200.0 mg/kg/injection, schedule: Q01DX001 (ip), vehicle: saline
[5] = dose: 200.0 mg/kg/injection, schedule: Q04DX003 (ip), vehicle: saline
[6] = dose: 400.0 mg/kg/injection, schedule: Q01DX001 (ip), vehicle: saline
[7] = dose: 100.0 mg/kg/injection, schedule: Q01DX009 (ip), vehicle: Klucel (hydroxypropylcellulose) (HPC)
[8] = dose: 100.0 mg/kg/injection, schedule: Q01DX009 (ip), vehicle: saline with Tween-80
[9] = dose: 100.0 mg/kg/injection, schedule: Q04DX002 (ip), vehicle: saline with Tween-80
[10] = dose: 200.0 mg/kg/injection, schedule: Q04DX002 (ip), vehicle: saline with Tween-80
[11] = dose: 100.0 mg/kg/injection, schedule: Q04DX002 (ip), vehicle: Klucel (hydroxypropylcellulose) (HPC)
[12] = dose: 200.0 mg/kg/injection, schedule: Q04DX002 (ip), vehicle: Klucel (hydroxypropylcellulose) (HPC)
[13] = dose: 400.0 mg/kg/injection, schedule: Q04DX002 (ip), vehicle: Klucel (hydroxypropylcellulose) (HPC)

Measured: T/C

COc1ccccc1NC(=O)Oc1ccc(Br)cc1Br
inactive: [1] 95 % of control | [2] 102 % of control and 106 % of control | dose: 100.0 mg/kg/injection, schedule: Q04DX002 (ip), vehicle: saline 105 % of control and 109 % of control | [3] 93 % of control | [4] 101 % of control | dose: 200.0 mg/kg/injection, schedule: Q01DX009 (ip), vehicle: saline 103 % of control and 110 % of control | dose: 200.0 mg/kg/injection, schedule: Q04DX002 (ip), vehicle: saline 105 % of control and 109 % of control | [5] 95 % of control | [6] 123 % of control | dose: 400.0 mg/kg/injection, schedule: Q01DX009 (ip), vehicle: saline 103 % of control and 109 % of control | dose: 400.0 mg/kg/injection, schedule: Q04DX002 (ip), vehicle: saline 107 % of control and 88 % of control | dose: 400.0 mg/kg/injection, schedule: Q04DX003 (ip), vehicle: saline 101 % of control

COC(=O)C1=CCN(C)CC1
inactive: [1] 93 % of control | [4] 101 % of control | [6] 93 % of control

CC(C)(C)NC(=O)Oc1ccc(-c2ccccc2)cc1
inactive: [7] 99 % of control | dose: 200.0 mg/kg/injection, schedule: Q01DX009 (ip), vehicle: Klucel (hydroxypropylcellulose) (HPC) 95 % of control | dose: 400.0 mg/kg/injection, schedule: Q01DX009 (ip), vehicle: Klucel (hydroxypropylcellulose) (HPC) 95 % of control

O=C1C=C(O)C(c2ccccc2)=CC1=O
inactive: dose: 100.0 mg/kg/injection, schedule: Q01DX001 (ip), vehicle: water 104 % of control | dose: 200.0 mg/kg/injection, schedule: Q01DX001 (ip), vehicle: water 119 % of control

CCOC(=O)C(C)CC(=O)c1ccccc1 (configuration not stated)
inactive: dose: 50.0 mg/kg/injection, schedule: Q01DX009 (ip), vehicle: saline with Tween-80 106 % of control | [8] 107 % of control | [9] 95 % of control | [10] 95 % of control

NC(=S)NNC(=O)/C=C/c1ccccc1
inactive: dose: 100.0 mg/kg/injection, schedule: Q04DX003 (ip), vehicle: saline sonified 105 % of control | dose: 200.0 mg/kg/injection, schedule: Q04DX003 (ip), vehicle: saline sonified 91 % of control | dose: 400.0 mg/kg/injection, schedule: Q04DX003 (ip), vehicle: saline sonified 91 % of control

COc1ccccc1NC(=O)N(Cc1ccccc1)C(C)(C)C
inactive: [11] 95 % of control | [12] 100 % of control | [13] 88 % of control

[O-][n+]1onc(-c2ccccn2)c1-c1ccccn1
inactive: [9] 95 % of control | [10] 100 % of control | dose: 400.0 mg/kg/injection, schedule: Q04DX002 (ip), vehicle: saline with Tween-80 103 % of control

O=[N+]([O-])C(Cl)(Cl)C(Cl)(Cl)[N+](=O)[O-]
inactive: dose: 2.5 mg/kg/injection, schedule: Q01DX009 (ip), vehicle: other 97 % of control | dose: 2.5 mg/kg/injection, schedule: Q04DX003 (ip), vehicle: other 100 % of control | dose: 5.0 mg/kg/injection, schedule: Q01DX001 (ip), vehicle: saline 94 % of control | dose: 5.0 mg/kg/injection, schedule: Q01DX009 (ip), vehicle: other 95 % of control | dose: 5.0 mg/kg/injection, schedule: Q04DX003 (ip), vehicle: other 102 % of control | dose: 10.0 mg/kg/injection, schedule: Q01DX001 (ip), vehicle: saline 94 % of control | dose: 10.0 mg/kg/injection, schedule: Q01DX009 (ip), vehicle: other 90 % of control | dose: 10.0 mg/kg/injection, schedule: Q04DX003 (ip), vehicle: other 88 % of control | dose: 20.0 mg/kg/injection, schedule: Q01DX001 (ip), vehicle: saline 92 % of control | dose: 40.0 mg/kg/injection, schedule: Q01DX001 (ip), vehicle: saline 86 % of control | dose: 80.0 mg/kg/injection, schedule: Q01DX001 (ip), vehicle: saline 100 % of control

N=C1C=C(N)C(=O)c2ccccc21
inactive: dose: 0.78 mg/kg/injection, schedule: Q01DX009 (ip), vehicle: Klucel (hydroxypropylcellulose) (HPC) 103 % of control | dose: 1.56 mg/kg/injection, schedule: Q01DX009 (ip), vehicle: Klucel (hydroxypropylcellulose) (HPC) 103 % of control | dose: 3.13 mg/kg/injection, schedule: Q01DX009 (ip), vehicle: Klucel (hydroxypropylcellulose) (HPC) 107 % of control | [8] 101 % of control

CCCCCCCCCCCC(=O)Nc1ccc(S(=O)(=O)NNc2ccccc2)cc1[N+](=O)[O-]
inactive: [7] 95 % of control | dose: 100.0 mg/kg/injection, schedule: Q04DX003 (ip), vehicle: alcohol 94 % of control | dose: 200.0 mg/kg/injection, schedule: Q04DX003 (ip), vehicle: alcohol 95 % of control | dose: 400.0 mg/kg/injection, schedule: Q04DX003 (ip), vehicle: alcohol 90 % of control

CC(=O)c1ccc(N=C2C=CC(=O)O2)cc1
inactive: [8] 104 % of control | dose: 200.0 mg/kg/injection, schedule: Q01DX009 (ip), vehicle: saline with Tween-80 105 % of control | dose: 400.0 mg/kg/injection, schedule: Q01DX009 (ip), vehicle: saline with Tween-80 100 % of control

O=C(Nn1cn[nH]c1=S)Oc1ccccc1
inactive: dose: 100.0 mg/kg/injection, schedule: Q04DX003 (ip), vehicle: saline with Tween-80 103 % of control | dose: 200.0 mg/kg/injection, schedule: Q04DX003 (ip), vehicle: saline with Tween-80 103 % of control

O=C1C=CC(=O)c2[nH]c(-c3ccccc3)cc21
inactive: dose: 12.5 mg/kg/injection, schedule: Q04DX002 (ip), vehicle: Klucel (hydroxypropylcellulose) (HPC) 93 % of control | dose: 25.0 mg/kg/injection, schedule: Q04DX002 (ip), vehicle: Klucel (hydroxypropylcellulose) (HPC) 105 % of control

CCCNC(=O)Oc1ccccc1C(=O)NCO
inactive: dose: 100.0 mg/kg/injection, schedule: Q01DX009 (ip), vehicle: other 101 % of control | dose: 200.0 mg/kg/injection, schedule: Q01DX009 (ip), vehicle: other 96 % of control

COc1ccc(Cl)cc1NC(=O)OCCCc1ccccc1
inactive: dose: 100.0 mg/kg/injection, schedule: Q01DX009 (ip), vehicle: gum acacia 108 % of control | dose: 200.0 mg/kg/injection, schedule: Q01DX009 (ip), vehicle: gum acacia 98 % of control | dose: 400.0 mg/kg/injection, schedule: Q01DX009 (ip), vehicle: gum acacia 109 % of control

Cc1c2c(nn1Cc1ccccc1)C(=O)C=C(Nc1ccccc1)C2=O
inactive: dose: 50.0 mg/kg/injection, schedule: Q01DX001 (ip), vehicle: Klucel (hydroxypropylcellulose) (HPC) 99 % of control | dose: 100.0 mg/kg/injection, schedule: Q01DX001 (ip), vehicle: Klucel (hydroxypropylcellulose) (HPC) 99 % of control and 104 % of control | dose: 200.0 mg/kg/injection, schedule: Q01DX001 (ip), vehicle: Klucel (hydroxypropylcellulose) (HPC) 97 % of control and 111 % of control

O=C(COc1ccc(Cl)cc1Cl)OCCOc1ccc(Cl)cc1
inactive: [11] 97 % of control | [12] 97 % of control | [13] 118 % of control

c1ccc(C[N+](Cc2ccccc2)=C2CCCCC2)cc1
inactive: dose: 50.0 mg/kg/injection, schedule: Q01DX009 (ip), vehicle: saline 92 % of control | [2] 100 % of control | [3] 98 % of control | [5] 103 % of control

CCN(CC)c1ccc(N=C2C=C(C(=O)Nc3ccc(C(=O)O)cc3)C(=O)c3ccccc32)c(C)c1
inactive: [1] 102 % of control | [4] 100 % of control | [6] 102 % of control
